Measurements as given in ChEMBL document CHEMBL1140457, “(1R,2S)-4-(2-cyano-cyclohexyl-oxy)-2-trifluoromethyl-benzonitrile, a potent androgen receptor antagonist for stimulating hair growth and reducing sebum production” (Bioorg Med Chem Lett, 2007).
Calls of active or inactive are those of the source. No cut-off for these calls is given here.

How the values were obtained:
Syrian golden hamster [1] = assay: Reduction of sebum production in topically dosed Syrian hamster ear model administered at 0.5% concentration twice daily for 2 weeks; type: functional, Mesocricetus auratus; design: scale not given: the % may be the effect or the level left
Androgen receptor [2] = biological target: T1, Androgen receptor (Homo sapiens, UniProt P10275); assay: Antagonist activity at androgen receptor expressed in MDA-MB-453 cells assessed as inhibition of dihydrotestosterone-induced response in reporter gene assay; type: functional, cell-based
T1 sequence (P10275 whole entry): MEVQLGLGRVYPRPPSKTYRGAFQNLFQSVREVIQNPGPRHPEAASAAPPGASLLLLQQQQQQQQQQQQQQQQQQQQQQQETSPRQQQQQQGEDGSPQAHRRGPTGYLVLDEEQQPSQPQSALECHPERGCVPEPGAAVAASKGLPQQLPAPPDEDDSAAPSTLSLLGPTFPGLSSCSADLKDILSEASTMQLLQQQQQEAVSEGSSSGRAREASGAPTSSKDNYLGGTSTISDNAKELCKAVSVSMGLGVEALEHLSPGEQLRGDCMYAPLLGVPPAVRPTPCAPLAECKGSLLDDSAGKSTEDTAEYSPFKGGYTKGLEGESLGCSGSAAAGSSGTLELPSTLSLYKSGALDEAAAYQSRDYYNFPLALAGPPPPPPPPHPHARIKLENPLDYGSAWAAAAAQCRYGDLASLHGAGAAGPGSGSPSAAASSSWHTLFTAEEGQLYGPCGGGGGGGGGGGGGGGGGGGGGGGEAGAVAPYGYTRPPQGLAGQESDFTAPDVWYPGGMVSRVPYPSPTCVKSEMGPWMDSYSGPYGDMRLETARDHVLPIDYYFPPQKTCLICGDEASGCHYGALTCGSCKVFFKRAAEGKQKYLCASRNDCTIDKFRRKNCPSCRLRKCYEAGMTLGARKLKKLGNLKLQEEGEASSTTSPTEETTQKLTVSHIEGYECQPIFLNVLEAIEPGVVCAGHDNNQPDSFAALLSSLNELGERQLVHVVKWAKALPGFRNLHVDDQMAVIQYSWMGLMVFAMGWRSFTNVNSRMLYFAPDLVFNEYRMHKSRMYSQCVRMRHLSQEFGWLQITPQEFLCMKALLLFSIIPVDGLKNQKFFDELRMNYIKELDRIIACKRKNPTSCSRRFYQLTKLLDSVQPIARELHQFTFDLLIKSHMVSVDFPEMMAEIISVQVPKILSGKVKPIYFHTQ

Androgen receptor [3] = biological target: T1, Androgen receptor; assay: Displacement of [3H]DHT from androgen receptor expressed in Sf9 cells
[4] = Metabolic stability in Sprague-Dawley rat hepatocytes assessed as hepatic extraction ratio at 1 uM; type: ADME, cell-based, Hepatocyte; conditions: read-out: Stability
[5] = Metabolic stability in Beagle dog hepatocytes assessed as hepatic extraction ratio at 1 uM; type: ADME, cell-based, Canis lupus familiaris, Hepatocyte; conditions: read-out: Stability
[6] = Half life in Sprague-Dawley rat at 1 mg/kg, iv; type: ADME, organism-based; design: dose 1 mg/kg, route intravenous; conditions: in vivo
[7] = Metabolic stability in human hepatocytes assessed as hepatic extraction ratio at 1 uM; type: ADME, cell-based, Hepatocyte; conditions: read-out: Stability
Syrian golden hamster [8] = assay: Reduction of sebaceous gland size in topically dosed Syrian hamster ear model administered twice daily for 2 weeks; type: functional, organism-based; conditions: Mesocricetus auratus
[9] = Plasma clearance in Sprague-Dawley rat at 1 mg/kg, iv; type: ADME, organism-based; design: dose 1 mg/kg, route intravenous
Syrian golden hamster [10] = assay: Reduction of sebum production in topically dosed Syrian hamster ear model administered twice daily for 2 weeks; type: functional, Mesocricetus auratus
[11] = Volume of distribution at steady state in Sprague-Dawley rat at 1 mg/kg, iv; type: ADME, organism-based; design: dose 1 mg/kg, route intravenous; conditions: in vivo, read-out: Vdss
Mus musculus = assay: Stimulation of hair growth in topically dosed C3H/HeN mouse model administered twice daily for 4 weeks; type: functional, organism-based

CC1(C)C(=O)N(c2ccc(C#N)c(C(F)(F)F)c2)C(=O)N1CCCCO [RU-58841]
Activity (Syrian golden hamster [1]): 91%

N#Cc1ccc(OC2CCCCC2C#N)cc1C(F)(F)F (racemic)
IC50 (Androgen receptor [2]): 13 nM | IC50 (Androgen receptor [3]): 58 nM

N#Cc1ccc(O[C@H]2CCCC[C@@H]2C#N)cc1C(F)(F)F
IC50 (Androgen receptor [2]): 196 nM | IC50 (Androgen receptor [3]): 43 nM

N#Cc1ccc(O[C@@H]2CCCC[C@H]2C#N)cc1C(F)(F)F
IC50 (Androgen receptor [2]): 12 nM | hepatic extraction ratio at 1 µM [4]: 0.88 | IC50 (Androgen receptor [3]): 60 nM | hepatic extraction ratio at 1 µM [5]: 0.92 | half-life [6]: 1.6 h | hepatic extraction ratio at 1 µM [7]: 0.57 | Activity (Syrian golden hamster [8]): Active | clearance [9]: 71 mL/min/kg | ED50 (Syrian golden hamster [10]): 0.1% | Vd [11]: 6.5 L/kg | Activity (Mus musculus): Dose-dependent effect
